{"source": "PubChem BioAssay AID296", "about": "(DTP/NCI, 2004)", "test_system": "MX-1 breast xenograft, nude mice, tumor weight T/C", "assay": "NCI In Vivo Anticancer Drug Screen. Data for tumor model Human Mammary Carcinoma MX-1 Xenograft (intrarenal inoculation) in NU/NU Swiss (nude) mice", "settings": "endpoint: mean tumor weight change, higher = larger tumour", "description": "The antitumor activity of compounds was measured in mice bearing transplantable tumors. Survival or tumor size were measured and the results are expressed as the measurement made in the treated group (T) divided by the measurement made in the vehicle treated control group (C). The tumor model used in this assay is Human Mammary Carcinoma MX-1 Xenograft (intrarenal inoculation) in NU/NU Swiss (nude) mice", "key": {"[1]": {"settings": "dose: 200.0 mg/kg/injection, schedule: Q01DX010 (sc), vehicle: saline"}, "[2]": {"settings": "dose: 400.0 mg/kg/injection, schedule: Q01DX010 (sc), vehicle: saline"}, "[3]": {"settings": "dose: 1600.0 mg/kg/injection, schedule: Q01DX010 (sc), vehicle: saline"}, "[4]": {"settings": "dose: 18.75 mg/kg/injection, schedule: Q04DX003 (sc), vehicle: Klucel (hydroxypropylcellulose) (HPC)"}, "[5]": {"settings": "dose: 37.5 mg/kg/injection, schedule: Q04DX003 (sc), vehicle: Klucel (hydroxypropylcellulose) (HPC)"}}, "note": "Where “and” joins values, the source holds several entries; their conditions need not be identical. Identical values can stand only once. Records with an inconclusive call do not appear.", "data": [{"compound": "CC(=O)NCCCCCCNC(C)=O", "values": [{"measurement": "T/C", "setting": "dose: 50.0 mg/kg/injection, schedule: Q01DX010 (sc), vehicle: saline", "result": "163 % of control"}, {"measurement": "T/C", "setting": "dose: 100.0 mg/kg/injection, schedule: Q01DX010 (sc), vehicle: saline", "result": "124 % of control"}, {"measurement": "T/C", "setting": "[1]", "result": "103 % of control and 111 % of control"}, {"measurement": "T/C", "setting": "[2]", "result": "84 % of control"}, {"measurement": "T/C", "setting": "dose: 800.0 mg/kg/injection, schedule: Q01DX010 (sc), vehicle: saline", "result": "88 % of control"}, {"measurement": "T/C", "setting": "[3]", "result": "78 % of control and 103 % of control"}, {"measurement": "T/C", "setting": "dose: 3200.0 mg/kg/injection, schedule: Q01DX010 (sc), vehicle: saline", "result": "104 % of control"}, {"measurement": "T/C", "setting": "dose: 6400.0 mg/kg/injection, schedule: Q01DX010 (sc), vehicle: saline", "result": "58 % of control"}]}, {"compound": "CCCCCC(O)C1C(=O)OC(C)C(O)/C=C/C=C/C=C/C=C\\C=C(\\C)C(O)CC(O)CC(O)CC(O)CC(O)CC(O)CC1O", "note": "(stereo not drawn)", "values": [{"measurement": "T/C", "setting": "dose: 300.0 mg/kg/injection, schedule: Q04DX003 (sc), vehicle: distilled water + alcohol", "result": "84 % of control"}, {"measurement": "T/C", "setting": "dose: 600.0 mg/kg/injection, schedule: Q04DX003 (sc), vehicle: distilled water + alcohol", "result": "107 % of control"}, {"measurement": "T/C", "setting": "dose: 1200.0 mg/kg/injection, schedule: Q04DX003 (sc), vehicle: distilled water + alcohol", "result": "69 % of control"}]}, {"compound": "Nc1nc(N)c2cc(CNc3ccc(C(=O)NC(CC(=O)O)CC(=O)O)cc3)ccc2n1", "values": [{"measurement": "T/C", "setting": "dose: 25.0 mg/kg/injection, schedule: Q04DX003 (sc), vehicle: Klucel (hydroxypropylcellulose) (HPC)", "result": "86 % of control"}, {"measurement": "T/C", "setting": "dose: 50.0 mg/kg/injection, schedule: Q04DX003 (sc), vehicle: Klucel (hydroxypropylcellulose) (HPC)", "result": "96 % of control"}, {"measurement": "T/C", "setting": "dose: 100.0 mg/kg/injection, schedule: Q04DX003 (sc), vehicle: Klucel (hydroxypropylcellulose) (HPC)", "result": "75 % of control"}, {"measurement": "T/C", "setting": "dose: 200.0 mg/kg/injection, schedule: Q04DX003 (sc), vehicle: Klucel (hydroxypropylcellulose) (HPC)", "result": "85 % of control"}]}, {"compound": "CN1CCN(Cc2nc3cccc4c3c([n+]2[O-])-c2ccccc2-4)CC1", "values": [{"measurement": "T/C", "setting": "dose: 12.5 mg/kg/injection, schedule: Q01DX010 (sc), vehicle: saline with Tween-80", "result": "72 % of control"}, {"measurement": "T/C", "setting": "dose: 25.0 mg/kg/injection, schedule: Q01DX010 (sc), vehicle: saline with Tween-80", "result": "96 % of control"}, {"measurement": "T/C", "setting": "dose: 400.0 mg/kg/injection, schedule: Q01DX010 (sc), vehicle: saline with Tween-80", "result": "35 % of control"}]}, {"compound": "[N-]=[N+]=C1N=CN=C1c1ncn[nH]1", "values": [{"measurement": "T/C", "setting": "dose: 12.5 mg/kg/injection, schedule: Q01DX010 (sc), vehicle: Klucel (hydroxypropylcellulose) (HPC)", "result": "121 % of control"}, {"measurement": "T/C", "setting": "dose: 25.0 mg/kg/injection, schedule: Q01DX010 (sc), vehicle: Klucel (hydroxypropylcellulose) (HPC)", "result": "76 % of control"}]}, {"compound": "O=C1OC(C(O)CO)C(O)=C1O", "note": "(stereo not drawn)", "values": [{"measurement": "T/C", "setting": "[1]", "result": "107 % of control"}, {"measurement": "T/C", "setting": "[2]", "result": "110 % of control"}, {"measurement": "T/C", "setting": "[3]", "result": "121 % of control"}]}, {"compound": "CSC1SCC2C(=O)N(C)C(C(C)C)C(=O)OCC(NC(=O)c3cnc4ccccc4n3)C(=O)NC(C)C(=O)N(C)C1C(=O)N(C)C(C(C)C)C(=O)OCC(NC(=O)c1cnc3ccccc3n1)C(=O)NC(C)C(=O)N2C", "note": "(stereo not drawn)", "values": [{"measurement": "T/C", "setting": "dose: 60.0 micrograms/kg/injection, schedule: Q01DX010 (sc), vehicle: saline", "result": "109 % of control"}, {"measurement": "T/C", "setting": "dose: 120.0 micrograms/kg/injection, schedule: Q01DX010 (sc), vehicle: saline", "result": "87 % of control"}, {"measurement": "T/C", "setting": "dose: 240.0 micrograms/kg/injection, schedule: Q01DX010 (sc), vehicle: saline", "result": "40 % of control"}]}, {"compound": "CCC[CH2][Hg][Cl]", "values": [{"measurement": "T/C", "setting": "dose: 9.38 mg/kg/injection, schedule: Q04DX003 (sc), vehicle: Klucel (hydroxypropylcellulose) (HPC)", "result": "74 % of control"}, {"measurement": "T/C", "setting": "[4]", "result": "61 % of control"}, {"measurement": "T/C", "setting": "[5]", "result": "46 % of control"}]}, {"compound": "COc1c(C=O)c2c(c(OC)c1OC)-c1ccc(OC)c(=O)cc1[C@@H](NC(C)=O)CC2", "values": [{"measurement": "T/C", "setting": "[4]", "result": "20 % of control"}, {"measurement": "T/C", "setting": "[5]", "result": "11 % of control"}]}, {"compound": "O=C1CN(Cc2ccc3c(c2)OCO3)NO1", "values": [{"measurement": "T/C", "setting": "dose: 150.0 mg/kg/injection, schedule: Q04DX003 (sc), vehicle: saline with Tween-80", "result": "64 % of control"}, {"measurement": "T/C", "setting": "dose: 300.0 mg/kg/injection, schedule: Q04DX003 (sc), vehicle: saline with Tween-80", "result": "42 % of control"}, {"measurement": "T/C", "setting": "dose: 600.0 mg/kg/injection, schedule: Q04DX003 (sc), vehicle: saline with Tween-80", "result": "39 % of control"}]}, {"compound": "C=C(NC(=O)C(=C)NC(=O)c1csc(C2=NC3c4csc(n4)C4NC(=O)c5csc(n5)C(C(C)(O)C(C)O)NC(=O)C5CSC(=N5)/C(=C/C)NC(=O)C(C(C)O)NC(=O)c5csc(n5)C3(CC2)NC(=O)C(C)NC(=O)C(=C)NC(=O)C(=C)NC(=O)C(C(C)C)NC2C=Cc3c(C(C)O)cc(nc3C2O)C(=O)OC4C)n1)C(N)=O", "note": "(stereo not drawn)", "values": [{"measurement": "T/C", "setting": "dose: 187.5 mg/kg/injection, schedule: Q04DX003 (sc), vehicle: suspension in saline", "result": "123 % of control"}, {"measurement": "T/C", "setting": "dose: 375.0 mg/kg/injection, schedule: Q04DX003 (sc), vehicle: suspension in saline", "result": "98 % of control"}, {"measurement": "T/C", "setting": "dose: 750.0 mg/kg/injection, schedule: Q04DX003 (sc), vehicle: suspension in saline", "result": "105 % of control"}, {"measurement": "T/C", "setting": "dose: 1500.0 mg/kg/injection, schedule: Q04DX003 (sc), vehicle: suspension in saline", "result": "152 % of control"}]}]}
